{
  "source": "paper PMC10700596",
  "about": "(Nature Communications, 2023)",
  "key": {"AURKA": {"molecular_target": "AURKA (Homo sapiens, UniProt O14965)", "sequence (O14965 whole entry)": "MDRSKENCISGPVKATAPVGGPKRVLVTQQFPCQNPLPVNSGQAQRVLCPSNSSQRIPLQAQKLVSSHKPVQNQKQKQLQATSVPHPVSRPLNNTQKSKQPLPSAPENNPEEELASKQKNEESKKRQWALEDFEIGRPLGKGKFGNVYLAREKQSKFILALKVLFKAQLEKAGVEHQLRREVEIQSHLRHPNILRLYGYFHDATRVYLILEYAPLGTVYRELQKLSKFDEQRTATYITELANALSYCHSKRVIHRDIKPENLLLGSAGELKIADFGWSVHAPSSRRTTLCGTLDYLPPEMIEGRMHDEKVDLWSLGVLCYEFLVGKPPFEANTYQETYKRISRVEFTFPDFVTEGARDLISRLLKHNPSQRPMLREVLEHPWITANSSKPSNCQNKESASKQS", "experiment": "biochemical", "assay_type": "binding", "conditions": "10000 nM; read-out: Percent Control"}, "CDK9": {"molecular_target": "CDK9 (Homo sapiens, UniProt P50750)", "sequence (P50750 whole entry)": "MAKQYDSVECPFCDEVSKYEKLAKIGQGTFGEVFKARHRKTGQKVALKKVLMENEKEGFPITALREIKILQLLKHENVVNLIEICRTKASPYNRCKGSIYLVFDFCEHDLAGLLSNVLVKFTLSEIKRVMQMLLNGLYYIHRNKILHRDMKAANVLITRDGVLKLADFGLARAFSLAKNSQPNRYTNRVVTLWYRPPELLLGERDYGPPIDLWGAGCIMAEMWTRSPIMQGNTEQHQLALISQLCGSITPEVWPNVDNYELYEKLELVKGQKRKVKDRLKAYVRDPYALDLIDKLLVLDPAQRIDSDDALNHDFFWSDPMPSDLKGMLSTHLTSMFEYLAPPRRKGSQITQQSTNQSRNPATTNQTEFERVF", "experiment": "biochemical", "assay_type": "binding", "conditions": "10000 nM; read-out: Percent Control"}, "in vivo": {"experiment": "in vivo", "assay_type": "in vivo, mice", "conditions": "mice; for concentration at 5 min / concentration at 15 min / concentration at 30 min / concentration at 60 min / concentration at 120 min / concentration at 240 min / concentration at 360 min / concentration at 480 min / concentration at 1440 min: male, CD-1, mouse, ip, 10 mg/kg, IP 10 mg/kg"}, "[1]": {"conditions": "CSF, CSF, mean, read-out: CSF concentrations of cmpd 7827_0016 in mice following IP (10 mg/kg) administration, C"}, "[2]": {"conditions": "brain, brain, individual animals, read-out: Brain concentration, Final"}, "[3]": {"conditions": "brain, brain, mean, read-out: Brain concentrations of cmpd 7827_0016 in mice following IP (10 mg/kg) administration, C"}, "[4]": {"conditions": "plasma, plasma, individual animals, read-out: Plasma concentration, Final"}, "[5]": {"conditions": "plasma, plasma, mean, read-out: Plasma concentrations of cmpd 7827_0016 in mice following IP (10 mg/kg) administration, C"}},
  "note": "Where two headings read alike, the source gives them in different places.",
  "data": [
    {"smiles": "O=C(O)C1CCC2(CC1)CC(Nc1ncnc3[nH]c4c(F)cccc4c13)C2", "note": "(stereo not drawn) [Compound 74, OC(=O)C1CCC2(CC(C2)NC=3N=CN=C4NC=5C(F)=CC=CC5C34)CC1]", "values": [
      {"measurement": "remaining activity at 10 µM", "setting": "AURKA", "result": 22, "unit": "%"},
      {"measurement": "remaining activity at 10 µM", "setting": "CDK9", "result": 97, "unit": "%"},
      {"measurement": "brain and cerebral spinal fluid exposure", "setting": "in vivo; 10 mg/kg i.p.", "result": "only marginal brain and cerebral spinal fluid exposure"},
      {"measurement": "concentration at 5 min", "setting": "in vivo; [1]", "result": 15.7, "unit": "ng/mL"},
      {"measurement": "concentration at 15 min", "setting": "in vivo; [1]", "result": 70.5, "unit": "ng/mL"},
      {"measurement": "concentration at 30 min", "setting": "in vivo; [1]", "result": 80.6, "unit": "ng/mL"},
      {"measurement": "concentration at 60 min", "setting": "in vivo; [1]", "result": 158, "unit": "ng/mL"},
      {"measurement": "concentration at 120 min", "setting": "in vivo; [1]", "result": 119, "unit": "ng/mL"},
      {"measurement": "concentration at 240 min", "setting": "in vivo; [1]", "result": 26, "unit": "ng/mL"},
      {"measurement": "concentration at 360 min", "setting": "in vivo; CSF, CSF, individual animals, read-out: CSF concentration, Final", "result": 98.6, "unit": "ng/mL"},
      {"measurement": "concentration at 360 min", "setting": "in vivo; [1]", "result": 80.9, "unit": "ng/mL"},
      {"measurement": "concentration at 480 min", "setting": "in vivo; [1]", "result": 7.31, "unit": "ng/mL"},
      {"measurement": "concentration at 1440 min", "setting": "in vivo; [1]", "result": 10.8, "unit": "ng/mL"},
      {"measurement": "concentration at 5 min", "setting": "in vivo; [2]", "result": 58.9, "unit": "ng/g"},
      {"measurement": "concentration at 5 min", "setting": "in vivo; [3]", "result": 61.1, "unit": "ng/g"},
      {"measurement": "concentration at 15 min", "setting": "in vivo; [2]", "result": 152, "unit": "ng/g"},
      {"measurement": "concentration at 15 min", "setting": "in vivo; [3]", "result": 135, "unit": "ng/g"},
      {"measurement": "concentration at 30 min", "setting": "in vivo; [2]", "result": 150, "unit": "ng/g"},
      {"measurement": "concentration at 30 min", "setting": "in vivo; [3]", "result": 203, "unit": "ng/g"},
      {"measurement": "concentration at 60 min", "setting": "in vivo; [2]", "result": 182, "unit": "ng/g"},
      {"measurement": "concentration at 60 min", "setting": "in vivo; [3]", "result": 160, "unit": "ng/g"},
      {"measurement": "concentration at 120 min", "setting": "in vivo; [3]", "result": 82.1, "unit": "ng/g"},
      {"measurement": "concentration at 240 min", "setting": "in vivo; [2]", "result": 21.6, "unit": "ng/g"},
      {"measurement": "concentration at 240 min", "setting": "in vivo; [3]", "result": 24.7, "unit": "ng/g"},
      {"measurement": "concentration at 360 min", "setting": "in vivo; [2]", "result": 20.8, "unit": "ng/g"},
      {"measurement": "concentration at 360 min", "setting": "in vivo; [3]", "result": 24.3, "unit": "ng/g"},
      {"measurement": "concentration at 480 min", "setting": "in vivo; [3]", "result": 26.7, "unit": "ng/g"},
      {"measurement": "concentration at 1440 min", "setting": "in vivo; [2]", "result": 0, "unit": "ng/g"},
      {"measurement": "concentration at 1440 min", "setting": "in vivo; [3]", "result": 0, "unit": "ng/g"},
      {"measurement": "concentration at 5 min", "setting": "in vivo; [4]", "result": 1340, "unit": "ng/mL"},
      {"measurement": "concentration at 5 min", "setting": "in vivo; [5]", "result": 1150, "unit": "ng/mL"},
      {"measurement": "concentration at 15 min", "setting": "in vivo; [4]", "result": 3720, "unit": "ng/mL"},
      {"measurement": "concentration at 15 min", "setting": "in vivo; [5]", "result": 4580, "unit": "ng/mL"},
      {"measurement": "concentration at 30 min", "setting": "in vivo; [4]", "result": 4610, "unit": "ng/mL"},
      {"measurement": "concentration at 30 min", "setting": "in vivo; [5]", "result": 6390, "unit": "ng/mL"},
      {"measurement": "concentration at 60 min", "setting": "in vivo; [4]", "result": 6620, "unit": "ng/mL"},
      {"measurement": "concentration at 60 min", "setting": "in vivo; [5]", "result": 6670, "unit": "ng/mL"},
      {"measurement": "concentration at 120 min", "setting": "in vivo; [5]", "result": 3050, "unit": "ng/mL"},
      {"measurement": "concentration at 240 min", "setting": "in vivo; [5]", "result": 1220, "unit": "ng/mL"}
    ]}
  ]
}
